Read-outs that look alike come from different tables or passages of the source.
How the values were obtained:
human metapneumovirus = test: Human Metapneumovirus (hMPV) TCID50 assay; format: cell-based
human PIV type 3 = test: Parainfluenza Virus-3 (PIV-3) plaque assay; format: cell-based
[1] = test system: RSV subgenomic replicon 395 HeLa; test: RSV subgenomic replicon assay (Renilla luciferase); format: cell-based; details: human respiratory syncytial virus, 168 h
RSV polymerase = RSV polymerase (Human respiratory syncytial virus A, UniProt P28887); test: Standard RSV polymerase assay; format: biochemical
Experimental: Standard RSV polymerase assays were conducted in the presence of 3 μL extract of RSV-infected cells in a reaction buffer containing 50 mM tris-acetate pH 8, 120 mM K-acetate, 4.5 mM MgCl2, 5% glycerol, 2 mM EDTA, 50 ug/mL BSA, and 3 mM DTT. Varying concentration of test compounds were used to initiate RNA synthesis for 120 mins at 30° C., and radioactive 33P GTP (15 uCi) was used as tracer. The reaction was stopped by adding 50 mM EDTA, and RNA samples were purified through G-50 size exclusion spin columns and phenol-chloroform extraction. The radio-labeled RNA products were resolved by electrophoresis on a 6% polyacrylamide TBE gel, and visualized and quantitated after being exposed on a phosphorlmager screen. Polymerase inhibition experiments (IC50) were conducted the same way in the presence of increasing concentration of test compounds.

[2] = 168 h, LLC-MK2 cells, 7 days infection, viral load by TCID50 assay, Table C1, read-out: EC50 against human metapneumovirus
[3] = MA104, MA-104 cells, 72 h infection, viral load by plaque assay, Table B1, read-out: EC50 against PIV-3
[4] = RSV replicon 395 HeLa cells, 7 days incubation, compounds listed in Table A1, read-out: EC50
[5] = RSV replicon 395 HeLa cells, 7 days incubation, compounds listed in Table A2 and other tested compounds, read-out: EC50

Sequence of RSV polymerase (P28887 whole entry, looked up): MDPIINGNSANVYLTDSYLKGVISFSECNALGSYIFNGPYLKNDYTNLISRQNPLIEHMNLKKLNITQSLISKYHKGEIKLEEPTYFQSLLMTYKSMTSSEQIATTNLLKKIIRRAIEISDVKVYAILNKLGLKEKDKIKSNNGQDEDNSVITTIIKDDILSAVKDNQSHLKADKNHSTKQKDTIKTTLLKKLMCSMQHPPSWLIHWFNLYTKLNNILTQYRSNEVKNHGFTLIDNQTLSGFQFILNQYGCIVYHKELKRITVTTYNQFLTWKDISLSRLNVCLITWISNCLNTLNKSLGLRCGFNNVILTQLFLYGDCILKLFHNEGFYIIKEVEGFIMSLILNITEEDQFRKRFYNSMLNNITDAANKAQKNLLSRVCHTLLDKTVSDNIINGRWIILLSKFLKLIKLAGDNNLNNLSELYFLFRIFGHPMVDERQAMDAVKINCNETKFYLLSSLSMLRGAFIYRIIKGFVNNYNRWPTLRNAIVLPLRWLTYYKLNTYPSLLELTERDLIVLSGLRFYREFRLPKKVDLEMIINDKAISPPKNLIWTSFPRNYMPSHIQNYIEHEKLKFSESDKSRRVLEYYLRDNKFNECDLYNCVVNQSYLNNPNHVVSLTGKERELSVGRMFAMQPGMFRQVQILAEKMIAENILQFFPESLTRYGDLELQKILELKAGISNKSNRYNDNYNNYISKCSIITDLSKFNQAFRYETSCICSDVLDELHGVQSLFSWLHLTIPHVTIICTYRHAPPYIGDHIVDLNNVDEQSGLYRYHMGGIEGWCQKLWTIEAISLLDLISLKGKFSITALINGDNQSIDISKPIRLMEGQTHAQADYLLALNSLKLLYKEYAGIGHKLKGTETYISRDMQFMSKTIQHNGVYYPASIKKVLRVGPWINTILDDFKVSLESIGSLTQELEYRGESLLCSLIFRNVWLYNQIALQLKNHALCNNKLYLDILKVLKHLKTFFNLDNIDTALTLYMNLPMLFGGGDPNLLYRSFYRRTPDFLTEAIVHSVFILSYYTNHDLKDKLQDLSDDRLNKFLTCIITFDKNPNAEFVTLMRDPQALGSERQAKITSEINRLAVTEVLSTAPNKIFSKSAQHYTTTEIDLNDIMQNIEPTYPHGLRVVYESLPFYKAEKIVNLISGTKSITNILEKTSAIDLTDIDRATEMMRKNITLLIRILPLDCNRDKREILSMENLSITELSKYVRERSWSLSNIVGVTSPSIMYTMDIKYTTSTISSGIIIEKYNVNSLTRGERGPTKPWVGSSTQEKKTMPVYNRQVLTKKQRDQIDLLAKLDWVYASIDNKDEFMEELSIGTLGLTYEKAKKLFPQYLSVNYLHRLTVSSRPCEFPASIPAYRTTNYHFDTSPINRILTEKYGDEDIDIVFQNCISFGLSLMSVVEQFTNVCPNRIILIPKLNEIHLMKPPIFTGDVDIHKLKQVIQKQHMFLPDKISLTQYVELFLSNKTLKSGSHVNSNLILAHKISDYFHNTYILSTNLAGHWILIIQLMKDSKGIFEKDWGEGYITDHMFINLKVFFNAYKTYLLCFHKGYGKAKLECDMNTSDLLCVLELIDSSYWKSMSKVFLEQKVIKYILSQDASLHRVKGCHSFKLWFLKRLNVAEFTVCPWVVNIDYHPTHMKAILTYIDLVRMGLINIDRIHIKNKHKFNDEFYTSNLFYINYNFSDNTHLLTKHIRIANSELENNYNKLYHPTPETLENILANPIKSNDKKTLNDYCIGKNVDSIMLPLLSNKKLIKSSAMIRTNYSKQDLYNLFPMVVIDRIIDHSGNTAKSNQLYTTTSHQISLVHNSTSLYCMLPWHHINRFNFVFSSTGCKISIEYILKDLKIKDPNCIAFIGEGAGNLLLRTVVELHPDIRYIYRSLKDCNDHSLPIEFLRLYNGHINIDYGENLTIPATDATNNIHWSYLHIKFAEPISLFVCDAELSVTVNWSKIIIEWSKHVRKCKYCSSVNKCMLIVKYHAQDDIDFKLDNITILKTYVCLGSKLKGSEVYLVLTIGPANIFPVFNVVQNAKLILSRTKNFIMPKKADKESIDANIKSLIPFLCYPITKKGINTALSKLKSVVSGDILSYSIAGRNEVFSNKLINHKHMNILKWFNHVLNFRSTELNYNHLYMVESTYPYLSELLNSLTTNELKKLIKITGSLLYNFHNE

## [N-]=[N+]=NC[C@]1(CO)O[C@@H](n2ccc(N)nc2=O)[C@H](F)[C@@H]1O [Compound 2A]
Human metapneumovirus; [2]
  EC50: < 20 µM
Human PIV type 3; [3]
  EC50: < 20 µM
[1]; [4]
  EC50: < 1 µM

## [N-]=[N+]=NC[C@]1(COP(=O)(O)OP(=O)(O)OP(=O)(O)O)O[C@@H](n2ccc(=O)[nH]c2=O)[C@H](F)[C@@H]1O [Compound 3A]
RSV polymerase
  IC50: < 1 µM

## [N-]=[N+]=NC[C@]1(COP(=O)(O)OP(=O)(O)OP(=O)(O)O)O[C@@H](n2ccc(N)nc2=O)[C@H](F)[C@@H]1O [Compound 4A]
RSV polymerase
  IC50: < 1 µM

## NC[C@]1(COP(=O)(O)OP(=O)(O)OP(=O)(O)O)O[C@@H](n2ccc(=O)[nH]c2=O)[C@H](F)[C@@H]1O [Compound 5A]
RSV polymerase
  IC50: 1 to 50 µM

## NC[C@]1(COP(=O)(O)OP(=O)(O)OP(=O)(O)O)O[C@@H](n2ccc(N)nc2=O)[C@H](F)[C@@H]1O [Compound 6A]
RSV polymerase
  IC50: 1 to 50 µM

## [N-]=[N+]=NC[C@]1(CO)O[C@@H](n2cnc3c(=O)[nH]c(N)nc32)[C@H](F)[C@@H]1O [Compound 7A]
Human metapneumovirus; [2]
  EC50: < 20 µM
[1]; [5]
  EC50: 1 to 50 µM

## [N-]=[N+]=NC[C@]1(COP(=O)(O)OP(=O)(O)OP(=O)(O)O)O[C@@H](n2cnc3c(N)ncnc32)[C@H](F)[C@@H]1O [Compound 11A]
RSV polymerase
  IC50: < 1 µM

## NC[C@]1(COP(=O)(O)OP(=O)(O)OP(=O)(O)O)O[C@@H](n2cnc3c(N)ncnc32)[C@H](F)[C@@H]1O [Compound 12A]
RSV polymerase
  IC50: < 1 µM

## CC(C)C(=O)OC[C@@]1(CN=[N+]=[N-])O[C@@H](n2ccc(N)nc2=O)[C@H](F)[C@@H]1OC(=O)C(C)C [Compound 14A]
Human metapneumovirus; [2]
  EC50: < 20 µM
Human PIV type 3; [3]
  EC50: < 20 µM
[1]; [4]
  EC50: < 1 µM

## CCC(=O)OC[C@@]1(CN=[N+]=[N-])O[C@@H](n2ccc(N)nc2=O)[C@H](F)[C@@H]1OC(=O)CC [Compound 15A]
Human metapneumovirus; [2]
  EC50: < 20 µM
Human PIV type 3; [3]
  EC50: < 20 µM
[1]; [4]
  EC50: < 1 µM

## CCCCC(=O)OC[C@@]1(CN=[N+]=[N-])O[C@@H](n2ccc(N)nc2=O)[C@H](F)[C@@H]1OC(=O)CCCC [Compound 16A]
Human metapneumovirus; [2]
  EC50: < 20 µM
Human PIV type 3; [3]
  EC50: < 20 µM
[1]; [4]
  EC50: < 1 µM

## CC(C)OC(=O)OCOP(=O)(OCOC(=O)OC(C)C)OC[C@@]1(CN=[N+]=[N-])O[C@@H](n2ccc(=O)[nH]c2=O)[C@H](F)[C@@H]1O [Compound 17A]
Human metapneumovirus; [2]
  EC50: < 20 µM
Human PIV type 3; [3]
  EC50: < 20 µM
[1]; [5]
  EC50: 1 to 50 µM

## CC(C)OC(=O)[C@H](C)NP(=O)(OC[C@@]1(CN=[N+]=[N-])O[C@@H](n2ccc(=O)[nH]c2=O)[C@H](F)[C@@H]1O)Oc1ccccc1 (stereo partly drawn) [Compound 18A]
Human metapneumovirus; LLC-MK2, 168 h, read-out: EC50 against human metapneumovirus
  EC50: < 20 µM
Human PIV type 3; MA104, 72 h, read-out: EC50 against PIV-3
  EC50: < 20 µM
[1]; HeLa
  EC50: 1 to 50 µM

## CC(C)(C)C(=O)SCCOP(=O)(OCCSC(=O)C(C)(C)C)OC[C@@]1(CN=[N+]=[N-])O[C@@H](n2ccc(=O)[nH]c2=O)[C@H](F)[C@@H]1O [Compound 19A]
Human metapneumovirus; [2]
  EC50: < 20 µM
Human PIV type 3; [3]
  EC50: < 20 µM
[1]; [5]
  EC50: 1 to 50 µM

## CC(C)OC(=O)[C@H](C)NP(=O)(N[C@@H](C)C(=O)OC(C)C)OC[C@@]1(CN=[N+]=[N-])O[C@@H](n2ccc(=O)[nH]c2=O)[C@H](F)[C@@H]1O [Compound 20A]
[1]; [5]
  EC50: 1 to 50 µM

## CC(C)(CO)C(=O)SCCOP(=O)(OCCSC(=O)C(C)(C)CO)OC[C@@]1(CN=[N+]=[N-])O[C@@H](n2ccc(=O)[nH]c2=O)[C@H](F)[C@@H]1O [Compound 21A]
[1]; HeLa
  EC50: 1 to 50 µM

## CC(C)OC(=O)C(C)NP(=O)(OCCSC(=O)C(C)(C)CO)OC[C@@]1(CN=[N+]=[N-])O[C@@H](n2ccc(=O)[nH]c2=O)[C@H](F)[C@@H]1O (stereo partly drawn) [Compound 22A]
[1]; [5]
  EC50: 1 to 50 µM

## CC(C)OC(=O)CCc1ccccc1OP(=O)(N[C@@H](C)C(=O)OC(C)C)OC[C@@]1(CN=[N+]=[N-])O[C@@H](n2ccc(=O)[nH]c2=O)[C@H](F)[C@@H]1O (stereo partly drawn) [Compound 23A]
[1]; HeLa
  EC50: 1 to 50 µM

## CC(C)(C)C(=O)OCOP(=O)(OCOC(=O)C(C)(C)C)OC[C@@]1(CN=[N+]=[N-])O[C@@H](n2ccc(=O)[nH]c2=O)[C@H](F)[C@@H]1O [Compound 28A]
Human metapneumovirus; [2]
  EC50: < 20 µM
Human PIV type 3; [3]
  EC50: < 20 µM
[1]; [5]
  EC50: 1 to 50 µM

From patent publication US10696708B2, “Substituted nucleosides, nucleotides and analogs thereof” (Janssen BioPharma, Inc., priority 2013, dated 2020)
